This is an account of results in article PMC9084191 (European Journal of Pharmaceutics and Biopharmaceutics, 2022).

Like-named read-outs stand apart in the source and are kept apart here. Where only a bound is given, the exact number is not on record here.

By pKa is commonly meant the negative logarithm of the acid dissociation constant. A word on the Log P: it is the decadic logarithm of the partition coefficient of the neutral form, usually between octanol and water.

A short description of data set [1]: Stability on storage at 40 °C/75% RH (PXRD, 19F NMR, HPLC). The format is physicochemical. Conditions: 2 weeks, 40 °C/RH 75%; for Drug content reduction (%): HPLC. The method, then: The salt form of DLM was prepared using a Buchi Rotavapor-R (Newcastle, Delaware). DLM free base and sulfonic acid were added at drug-acid 1:1 molar ratio in a mixture of DCM and acetone (1:1 v/v) where alcoholic solvents were avoided to prevent the formation of alkyl esters during salt synthesis. Solvents were removed by rotary evaporation at 40 °C. DLM salts were then kept under vacuum at room temperature overnight to remove residual solvents. DLM salts were characterized by ^1H-nuclear magnetic resonance (NMR) spectroscopy to confirm salt formation. Their physical and chemical stability were monitored following storage at 40 °C/75% relative humidity (RH) by measuring several physicochemical properties, including crystallinity (by powder X-ray diffraction, PXRD), impurities (by ^19F NMR spectroscopy), drug content (by HPLC as described above) and hygroscopicity (using dynamic vapor sorption analysis).
(§1) Crystallinity of ASDs and DLM salts was evaluated using a Rigaku Smartlab diffractometer (Rigaku Americas, The Woodlands, TX) equipped with a Cu–Kα radiation source and a D/tex ultradetector. Samples were added to glass sample holders, and powder patterns were recorded over the range of 4-40° 2θ at a scanning speed of 4° per min and a 0.02° step size with the voltage and current set to 40 kV and 44 mA, respectively.
Salt formation was confirmed by ^1H nuclear magnetic resonance (NMR) spectroscopy and impurities in DLM salts following preparation and storage were detected by ^19F NMR spectroscopy. Samples were dissolved in dimethyl sulfoxide-d6 (Cambridge Isotope Laboratories, Inc., Andover, MA) at a concentration of 20 mg/mL. All NMR spectra were acquired on a Bruker DRX 500 MHz spectrometer (Karlsruhe, Germany) equipped with a BBFO z-gradient probe operating at room temperature. For ^1H NMR spectra, the spectral sweep width was 20 ppm, acquisition time was 1.6 sec and number of scans was 16. For ^19F NMR spectroscopy, ^1H was decoupled during acquisition, spectral sweep width was 50 ppm, acquisition time was 1.4 sec and the number of scans was 64.

Data set [2] in a line: Release testing of tablets, two-stage pH-shift (pH 1.6 to 6.5). In kind it is physicochemical. The protocol: (§2) The ASDs were mixed with excipients and compressed to obtain tablets containing 5 mg DLM with respect to the free base. All dissolution studies of DLM tablets were conducted in triplicate in single-stage or two-stage pH-shift condition using a Hanson Vision G2 Classic 6 dissolution system (Teledyne Hanson Research, Chatsworth, CA). For single-stage testing, the tablets containing the ASDs were added to 50 mL PBS, pH 6.5 and monitored for 1 h at 37° C, with 150 rpm of stirring. For pH-shift experiments, release in the acidic stage was conducted in 45 mL HCl solution pH 1.6 for 1 h, followed by addition of 5 mL concentrated PBS (pH 7.3) to adjust the pH of solution to pH 6.5 and drug release was monitored for an additional 30 min. An in situ Rainbow fiber optic ultraviolet spectrometer coupled with 10 mm fiber optic dip probes (Pion, Billerica, MA, USA) was used to monitor drug concentration over time. Second derivative analysis was applied to correct the spectral baseline and a calibration curve of area under curve (AUC) of the range 330–350 nm was used to calculate the drug concentration.

Data set [3] in a line: Water sorption analysis. Conditions: for Water sorption (%) at 95 % RH: 37 °C. The format is physicochemical. The protocol: Water sorption profiles of DLM salts and ASDs were measured by using a SGA-100 symmetrical gravimetric analyzer (TA Instrument, New Castle, DE) at 37 °C. Samples (10–20 mg) were flushed with dry air for 3 h. After drying, samples were exposed to increasing relative humidity (RH) steps from 5 to 95% with a maximum step time of 180 min. Vapor sorption profiles are recorded as the equilibrium value (the weight change was below 0.001%/min over 5 min) at each RH.

Data set [4] in a line: Release testing of tablets, single-stage PBS pH 6.5. In kind it is physicochemical. Conditions: PBS pH 6.5, single stage. The protocol:
as §2

Data set [5] can be described thus: Glass transition temperature by DSC. The format is physicochemical. The conditions noted are these: for Tg: neat drug, salt or polymer. The protocol:
The glass transition temperatures (Tg) of drug, polymers and ASD samples were determined using a TA Q2000 DSC equipped with an RCS90 refrigeration unit (TA Instruments, New Castle, DE). The temperature calibration was performed using indium and tin, while enthalpy calibration was conducted with indium. Samples (5–10 mg) were added to aluminum pans with a pinhole lid (Tzero pan, TA Instrument, DE). […] The heating and cooling cycle was repeated 3 times to remove residual solvent and thermal history, and the last cycle was used for analysis.

The conditions of data set [6]: cited from earlier work.
On the set-up of data set [7]: method as in earlier work. Conditions: predicted pKa; cited from earlier work.
Data set [8] in a line: Nucleation induction time measurement. In kind it is physicochemical. Conditions: for Induction time (tind): 37 °C, no polymer.
Details of data set [9]: method as in PMID 24881816. Conditions: predicted log P calculated by ALOGPS; cited from earlier work.
For data set [10] the following is noted: cited from earlier work. The source holds these as a separate data set.
Data set [11] can be described thus: Dynamic light scattering of DLM-rich nanodroplets. In kind it is physicochemical. The conditions noted are these: HPMCP and HPMCAS solutions 300 µg/mL, drug 50 µg/mL, PBS pH 6.5, 3-h period. The method, then:
The size of DLM-rich droplets formed above the amorphous solubility was measured by dynamic light scattering (DLS) using a Nano-Zetasizer (Nano-ZS, Malvern Instruments, Westborough, MA). […] To evaluate the impact of polymers on nanodroplet stability, polymers were pre-dissolved in solution at a concentration of 300 μg/mL and drug was introduced at 50 μg/mL. Samples were monitored for up to 3 h after liquid–liquid phase separation was initiated.

Data set [12] in a line: Crystallinity by PXRD following preparation. The format is physicochemical. Conditions: immediately following preparation. The protocol:
as §1

Setting [13] is: value of the strongest acidity, ref [3, 4] of supplement.
[14] abbreviates: value of the strongest acidity, ref [2] of supplement.

Regarding `C[C@]1(COc2ccc(N3CCC(Oc4ccc(OC(F)(F)F)cc4)CC3)cc2)Cn2cc([N+](=O)[O-])nc2O1.C[C@]1(COc2ccc(N3CCC(Oc4ccc(OC(F)(F)F)cc4)CC3)cc2)Cn2cc([N+](=O)[O-])nc2O1.O=S(=O)(O)CCS(=O)(=O)O` [Edisylate (2:1)], in [1], the “Impurity (19F NMR) (%)” value is recorded as 1.0% and the “Drug content reduction (%)” value is on record as 0.8%. The “Release in acidic medium (in words)” value in data set [2] (acid stage of pH-shift experiment) was “slightly higher than that observed for DLM free base”. Besides, the “Water sorption (%) at 95 % RH” value in data set [3] was determined as 11.6%. In data set [4], the “Drug release (in words)” value was “no release”. Moreover, the Tg in data set [5] came out at 117.8 °C.
With `O=S(=O)(O)c1ccc(Cl)cc1` [Chlorobenzenesulfonic, 4-chlorobenzenesulfonic acid], the pKa in data set [6] (value of the strongest acidity, ref [5] of supplement) is -0.61 [5].
With `O=S(=O)(O)c1cccc2c(S(=O)(=O)O)cccc12` [Naphthalenedisulfonic, 1,5-naphthalenedisulfonic acid], the pKa in data set [6] (setting [13]) is 0.17 [3, 4].
As for `CC1(C)[C@@H]2CC[C@@]1(CS(=O)(=O)O)C(=O)C2.C[C@]1(COc2ccc(N3CCC(Oc4ccc(OC(F)(F)F)cc4)CC3)cc2)Cn2cc([N+](=O)[O-])nc2O1` [Camsylate], in [1], the “Impurity (19F NMR) (%)” value amounted to 2.0% and the “Drug content reduction (%)” value worked out at 6.1%. In data set [3], the “Water sorption (%) at 95 % RH” value stood at 8.1%. For the same compound, the Tg in data set [5] is 97.9 °C.
`C[C@]1(COc2ccc(N3CCC(Oc4ccc(OC(F)(F)F)cc4)CC3)cc2)Cn2cc([N+](=O)[O-])nc2O1.O=S(=O)(O)c1ccc(Cl)cc1` [Closylate]: in data set [1], the “Impurity (19F NMR) (%)” value amounted to 2.3%, the Liquefaction result was “liquefaction” and the “Drug content reduction (%)” value is given as 3.1%. Also, the “Water sorption (%) at 95 % RH” value in [3] came out at 5.8%. Further, the Tg in data set [5] was determined as 90.1 °C.
As for `O=S(=O)(O)c1ccccc1` [Benzenesulfonic, benzenesulfonic acid], the pKa in [6] (setting [14]) is -2.8.
In the case of `C[C@]1(COc2ccc(N3CCC(Oc4ccc(OC(F)(F)F)cc4)CC3)cc2)Cn2cc([N+](=O)[O-])nc2O1` [Delamanid], the pKa in data set [7] is 3.99; in [6] it was 4.3. Further, the “Drug concentration released in acid stage” value in data set [2] (pH-shift experiment, low pH (1.6) stage) was “around 20 µg/mL”. Moreover, the Induction time in data set [8] (PBS pH 6.5, Eud-L100 300 µg/mL) was 10.2 ± 3.1 min; in data set [8] (PBS pH 6.5, HPMC 300 µg/mL), “about 50 min”; in data set [8] (PBS pH 6.5, HPMCAS 300 µg/mL), “more than 1000 min”; in data set [8] (PBS pH 6.5, HPMCP 300 µg/mL), “more than 1000 min”; in [8] (PBS pH 6.5, PVPVA 300 µg/mL), “more than 1000 min”; in data set [8] (in presence of PVPVA, HPMCAS or HPMCP), > 720 min. Besides, in data set [3], the “Hygroscopicity (in words)” value is “non-hygroscopic”. The “Drug release (in words)” value in data set [4] is reported as “no release was detected”. Besides, the results for the “Log P” value in [9] and in data set [10] were 6.14 and 5.67, respectively. The “Glass forming ability class” value in [5] (cooling from the melt at 50 °C/min) is “Class I”. Moreover, the Tg in [5] came out at 43.3 °C; in data set [5] (listed as delamanid free base), 43.3 ± 0.4 °C. Further, the Nanodroplet size change result in data set [11] is given as “no notable change”.
For `CC1(C)C2CC[C@@]1(CS(=O)(=O)O)C(=O)C2` [Camphorsulfonic, (1S)-(+)-10-camphorsulfonic acid], in data set [6] (value of the strongest acidity, ref [6] of supplement), the pKa was 1.2 [6].
As for `CCS(=O)(=O)O` [Ethanesulfonic, Ethanesulfonic acid], the pKa is reported as -1.68 in data set [6] (setting [14]) and -2.05 in [6] (value of the strongest acidity, ref [3] of supplement).
With `CC1(COc2ccc(N3CCC(Oc4ccc(OC(F)(F)F)cc4)CC3)cc2)Cn2cc([N+](=O)[O-])nc2O1.CC1(COc2ccc(N3CCC(Oc4ccc(OC(F)(F)F)cc4)CC3)cc2)Cn2cc([N+](=O)[O-])nc2O1.O=S(=O)(O)c1cccc2c(S(=O)(=O)O)cccc12` (stereo not shown) [Napadisylate (2:1)], the “Crystallinity by PXRD (in words)” value in data set [12] was “partial crystallization”.
As to Tosylate, in data set [1], the “Impurity (19F NMR) (%)” value was 1.0%, the Liquefaction result was “liquefaction” and the “Drug content reduction (%)” value is recorded as 2.1%. Besides, the “Induction time (tind)” value in [8] (FaSSGF (pH 1.6), at amorphous solubility) was 1.0 min. Besides, the “Induction time (tind)” value in [8] (PBS pH 6.5, at amorphous solubility) is recorded as 18.5 min. In addition, the “Water sorption (%) at 95 % RH” value in data set [3] turned out to be 6.1%. Besides, the Tg in data set [5] was found to be 90.2 °C.
Turning to `C[C@]1(COc2ccc(N3CCC(Oc4ccc(OC(F)(F)F)cc4)CC3)cc2)Cn2cc([N+](=O)[O-])nc2O1.O=S(=O)(O)CCS(=O)(=O)O` [DLM-edisylate (1:1)], the “Water sorption (%) at 95 % RH” value in data set [3] is 59%. The Tg in data set [5] was 53.9 °C.
Turning to `O.O.O=S(=O)(O)CCS(=O)(=O)O` [Ethanedisulfonic, 1,2-Ethanedisulfonic acid dihydrate], the pKa in data set [6] (setting [13]) is -2.1 [3, 4].
